From ChEMBL document CHEMBL1201862, “PubChem BioAssay data set” (2004)
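Grown in 96-well plates, cells were treated for 48 hours with each compound at five concentrations. Insufficient inhibition: endpoint recorded as highest concentration tested. At the GI50, growth is halved.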 Active and inactive are the calls of the source. No stated cut-off is given here; in the data, active = GI50 up to about 1.1 µM and inactive = higher.

Legend:
Experiment in all cases: inhibition of tumour cell growth, NCI panel, 48 h
HOP-92 = test system: HOP-92
K562 = test system: K562
UACC-62 = test system: UACC-62
SK-MEL-28 = test system: SK-MEL-28
COLO 205 = test system: COLO 205
SK-MEL-5 = test system: SK-MEL-5
HCC 2998 = test system: HCC 2998
EKVX = test system: EKVX
M14 = test system: M14
KM12 = test system: KM12
UO-31 = test system: UO-31
OVCAR-8 = test system: OVCAR-8
A549 = test system: A549
HT-29 = test system: HT-29
MDA-MB-231 = test system: MDA-MB-231
IGROV-1 = test system: IGROV-1
T47D = test system: T47D
SK-OV-3 = test system: SK-OV-3
A498 = test system: A498

Row | SMILES | GI50 (HOP-92) | GI50 (K562) | GI50 (UACC-62) | GI50 (SK-MEL-28) | GI50 (COLO 205) | GI50 (SK-MEL-5) | GI50 (HCC 2998) | GI50 (EKVX) | GI50 (M14) | GI50 (KM12) | GI50 (UO-31) | GI50 (OVCAR-8) | GI50 (A549) | GI50 (HT-29) | GI50 (MDA-MB-231) | GI50 (IGROV-1) | GI50 (T47D) | GI50 (SK-OV-3) | GI50 (A498)
1 | O=C(c1ccccc1)c1c(C(F)(F)F)[n+]([O-])c2cc(Cl)c(Cl)cc2[n+]1[O-] | 7.01 µM (inactive) | 2.24 µM (inactive) | 3.97 µM (inactive) | 2.86 µM (inactive) | 2.93 µM (inactive) | 2 µM (inactive) | 2.16 µM (inactive) | 3.27 µM (inactive) | 0.968 µM (active) | 0.548 µM (active) | 1.47 µM (inactive) | 2.65 µM (inactive) | 0.736 µM (active) | 0.473 µM (active) | 0.229 µM (active) | 0.473 µM (active) | 1.45 µM (inactive) | 4.8 µM (inactive) | 
2 | OC12COc3ccccc3C1Oc1ccccc1C2 (stereo not given) | > 100 µM (inactive) | > 100 µM (inactive) | > 100 µM (inactive) |  | > 100 µM (inactive) | > 100 µM (inactive) | > 100 µM (inactive) | > 100 µM (inactive) | > 100 µM (inactive) | > 100 µM (inactive) | > 100 µM (inactive) | > 100 µM (inactive) | > 100 µM (inactive) | > 100 µM (inactive) | > 100 µM (inactive) | > 100 µM (inactive) | > 100 µM (inactive) | > 100 µM (inactive) | > 100 µM (inactive)
3 | COC(=O)C1Cc2cc3c(cc2C1=O)CCC3 (stereo not given) |  | 43 µM (inactive) | > 100 µM (inactive) | > 100 µM (inactive) | > 100 µM (inactive) | > 100 µM (inactive) | > 100 µM (inactive) | > 100 µM (inactive) | > 100 µM (inactive) | > 100 µM (inactive) | > 100 µM (inactive) | > 100 µM (inactive) | > 100 µM (inactive) | > 100 µM (inactive) | > 100 µM (inactive) | > 100 µM (inactive) | > 100 µM (inactive) | > 100 µM (inactive) | > 100 µM (inactive)
4 | COc1ccc(-c2cc(-c3ccc(Nc4ccnc5cc(C(F)(F)F)ccc45)cc3)nc(N)c2C#N)c2ccccc12 | > 100 µM (inactive) |  | > 100 µM (inactive) |  | > 100 µM (inactive) | > 100 µM (inactive) | > 100 µM (inactive) | > 100 µM (inactive) | > 100 µM (inactive) | 68.5 µM (inactive) | > 100 µM (inactive) |  | > 100 µM (inactive) |  | > 100 µM (inactive) |  | > 100 µM (inactive) | > 100 µM (inactive) | > 100 µM (inactive)
5 | CCOC(=O)N(C)C(=C(F)F)C(F)(F)F | 25.4 µM (inactive) | 22.1 µM (inactive) | > 10 µM (inactive) | 20 µM (inactive) | 21 µM (inactive) | 15.7 µM (inactive) | 20.6 µM (inactive) | 27.6 µM (inactive) | 16.8 µM (inactive) | 35 µM (inactive) | 32.7 µM (inactive) | 23.8 µM (inactive) | 29 µM (inactive) | 27 µM (inactive) | 28.5 µM (inactive) | 21.2 µM (inactive) | 26.8 µM (inactive) | 36 µM (inactive) | 
6 | N#C/C(N)=C(\C#N)NC(=O)C(=O)N/C(C#N)=C(\N)C#N | > 100 µM (inactive) | > 100 µM (inactive) | > 100 µM (inactive) | > 100 µM (inactive) | > 100 µM (inactive) | > 100 µM (inactive) | > 100 µM (inactive) | > 100 µM (inactive) | > 100 µM (inactive) | > 100 µM (inactive) | > 100 µM (inactive) | > 100 µM (inactive) | > 100 µM (inactive) | > 100 µM (inactive) | > 100 µM (inactive) | > 100 µM (inactive) | > 100 µM (inactive) |  | > 100 µM (inactive)
7 | Cc1cc(C)nc(NC(=S)Nc2ccc(Cl)cc2)c1 |  | > 100 µM (inactive) | > 100 µM (inactive) | > 100 µM (inactive) | > 100 µM (inactive) | > 100 µM (inactive) |  | 17.4 µM (inactive) | > 100 µM (inactive) | 53.6 µM (inactive) | > 100 µM (inactive) | 20.1 µM (inactive) | > 100 µM (inactive) | > 100 µM (inactive) | 74.8 µM (inactive) | 65.8 µM (inactive) | > 100 µM (inactive) | 23.4 µM (inactive) | 48.3 µM (inactive)
8 | O=C1CCCc2cc3c(cc21)CC1(Cc2ccccc2C1)C3 | 10.8 µM (inactive) | 1.86 µM (inactive) | 8.91 µM (inactive) |  | 1.93 µM (inactive) | 4.89 µM (inactive) | 16.1 µM (inactive) | 9.14 µM (inactive) | 4.33 µM (inactive) | 2.5 µM (inactive) | 1.46 µM (inactive) | 6.28 µM (inactive) | 6.17 µM (inactive) | 2.8 µM (inactive) | 8.18 µM (inactive) | 7.43 µM (inactive) | 5.24 µM (inactive) | 5.11 µM (inactive) | 9.12 µM (inactive)
9 | Nc1nc(N)c(C2=CCNCC2)c(=O)[nH]1 | > 100 µM (inactive) | > 100 µM (inactive) | > 100 µM (inactive) | > 100 µM (inactive) | > 100 µM (inactive) | > 100 µM (inactive) |  | > 100 µM (inactive) | > 100 µM (inactive) | > 100 µM (inactive) | > 100 µM (inactive) | > 100 µM (inactive) | > 100 µM (inactive) | > 100 µM (inactive) | > 100 µM (inactive) | > 100 µM (inactive) | > 100 µM (inactive) | > 100 µM (inactive) | > 100 µM (inactive)
10 | C=CCCCC1SC2=C(CC)CCCN2C1=O (stereo not given) | 36.9 µM (inactive) | > 100 µM (inactive) | 81.3 µM (inactive) | 76.6 µM (inactive) | 54 µM (inactive) | 36.1 µM (inactive) |  | 78.7 µM (inactive) | > 100 µM (inactive) | 86.7 µM (inactive) | 67.5 µM (inactive) | > 100 µM (inactive) | 41.6 µM (inactive) | 58.3 µM (inactive) | 92 µM (inactive) | > 100 µM (inactive) | 32.5 µM (inactive) | > 100 µM (inactive) | 90.4 µM (inactive)
11 | CC1=C(c2ccccc2)NC(=S)C(C)C(c2ccccc2)=N1 (stereo not given) |  | 10.6 µM (inactive) | 33.7 µM (inactive) | 38.9 µM (inactive) | 30.9 µM (inactive) | 24.9 µM (inactive) | 34.3 µM (inactive) | 42.3 µM (inactive) |  | 21.2 µM (inactive) | 19.6 µM (inactive) | 83.4 µM (inactive) | 40.1 µM (inactive) | 32.4 µM (inactive) | > 100 µM (inactive) | 36.9 µM (inactive) | 15.8 µM (inactive) | > 100 µM (inactive) | 27.2 µM (inactive)
12 | COC(=O)c1ccc2c(c1)CC1(C2)Cc2ccc3c(c2C1)CCC3 (stereo not given) | 0.855 µM (active) | 6.64 µM (inactive) | 14.6 µM (inactive) | 86.1 µM (inactive) | 9.84 µM (inactive) | 14.3 µM (inactive) | 43 µM (inactive) | 51.3 µM (inactive) | 0.574 µM (active) | 12.6 µM (inactive) |  | 69.2 µM (inactive) | 29.9 µM (inactive) | 17.5 µM (inactive) | 5.07 µM (inactive) | 42.8 µM (inactive) | 14.3 µM (inactive) | 13.6 µM (inactive) | 
13 | COC1CCC(=O)N1CN(C(C)=O)c1ccc(C)cc1 (stereo not given) |  | > 100 µM (inactive) | > 100 µM (inactive) | > 100 µM (inactive) | > 100 µM (inactive) | > 100 µM (inactive) | > 100 µM (inactive) |  | > 100 µM (inactive) | > 100 µM (inactive) | > 100 µM (inactive) | > 100 µM (inactive) | > 100 µM (inactive) | > 100 µM (inactive) | > 100 µM (inactive) |  | > 100 µM (inactive) | > 100 µM (inactive) | > 10 µM (inactive)
14 | O=C(O)c1ccc(NNC(=O)c2cccc3c(=O)c4ccccc4[nH]c23)cc1 | 65 µM (inactive) | 58.6 µM (inactive) | > 100 µM (inactive) | > 100 µM (inactive) | > 100 µM (inactive) | 55.5 µM (inactive) | > 100 µM (inactive) | 57.9 µM (inactive) | > 100 µM (inactive) | > 100 µM (inactive) | 89.7 µM (inactive) | > 100 µM (inactive) | > 100 µM (inactive) | > 100 µM (inactive) | 75.3 µM (inactive) | > 100 µM (inactive) | 31.6 µM (inactive) | > 100 µM (inactive) | 
15 | c1cc2c(c(NC3=NCCO3)c1)CCC2 | 94.4 µM (inactive) | > 100 µM (inactive) | > 100 µM (inactive) | > 100 µM (inactive) | > 100 µM (inactive) | > 100 µM (inactive) |  | > 100 µM (inactive) | > 100 µM (inactive) | > 100 µM (inactive) | > 100 µM (inactive) | > 100 µM (inactive) | > 100 µM (inactive) | > 100 µM (inactive) | > 100 µM (inactive) | > 100 µM (inactive) | > 100 µM (inactive) | > 100 µM (inactive) | > 100 µM (inactive)
16 | O=C1Nc2ccc(Br)cc2/C1=N/NC(=S)Nc1ccc(F)cc1 | 3.61 µM (inactive) | 3.61 µM (inactive) | 2.56 µM (inactive) | 3.94 µM (inactive) | 4.02 µM (inactive) | 3.67 µM (inactive) |  |  |  | 5.11 µM (inactive) |  | 4.25 µM (inactive) |  | 5.38 µM (inactive) | 12.6 µM (inactive) | 0.948 µM (active) | 4.9 µM (inactive) | 13.2 µM (inactive) | 2.26 µM (inactive)
